Results as given in patent US20250051346A1 (priority 2021, published 2025).

Experiments:
mice = conditions: mouse, in vivo
5HT2A sensor [1] = format: cell-based
5HT2A sensor [2] = format: cell-based; remark: listed apart in the source
For activation of the 5HT2A sensor assay in this document: test concentration or dose not given here.
For competition with 5-HT at 5HT2A in the sensor assay in this document: test concentration or dose not given here.

With 5-MeO-DMT [Compound 5-MeO-DMT] the “head-twitch response (HTR)” value (mice) was “robust, dose-dependent head-twitch response” and the “activation of the 5HT2A sensor assay” value (5HT2A sensor [1]) was “activate the 5HT2A sensor assay in agonist mode”.

For `CCN(CC)CCc1c[nH]c2cc(F)ccc12` [Compound 6-F-DET, 6-F-DET], the “activation of the 5HT2A sensor assay” value (5HT2A sensor [1]) was “do not activate the 5HT2A sensor assay in agonist mode” and the “competition with 5-HT at 5HT2A in the sensor assay” value (5HT2A sensor [2]) was “can compete with 5HT binding to 5HT2A”.

In the case of `O=C(c1ccc(F)cc1)C1CCN(CCn2c(=O)[nH]c3ccccc3c2=O)CC1` [Ketanserin], the “activation of the 5HT2A sensor assay” value (5HT2A sensor [1]) is reported as “do not activate the 5HT2A sensor assay in agonist mode” and the “competition with 5-HT at 5HT2A in the sensor assay” value (5HT2A sensor [2]) is reported as “can compete with 5HT binding to 5HT2A”.
